Results from US7635779B2, “Oxy substituted flavones as antihyperglycemic and antidyslipidemic agents” (Council of Scientific & Industrial Research, priority 2004, dated 2009).
Like-named read-outs stand apart in the source and are kept apart here.

Tests used:
[1] = test system: triton WR-1339 induced hyperlipidemic rats; assay: Triton model, antidyslipidemic activity; assay type: in vivo, rat; details: 100 mg/kg oral, plasma after 18 h; for inhibition in vivo at 100 mg/kg: Rattus norvegicus
Experimental: Male Charles foster rats weighing 200-225 g were divided into control, hyperlipidemic and hyperlipidemic plus drug treated groups containing six animals in each group. Hyperlipidemia was induced by administration of triton WR-1339 (200 mg/kg i.p.). All animals were maintained on a special pellet diet and water ad libitum. Compounds and standard drug were macerated with 0.2% aqueous gum acacia suspension. The suspension was fed orally at the dose of 100 mg/kg simultaneously with triton in drug treated group. The animals of control group received the same amount of gum acacia by similar route of administration. At the end of the experiment, after 18 h, blood was withdrawn from retro orbital plexus and plasma was used for the assay of total cholesterol, phospholipid and triglycerides.
Cholesterol was estimated using the kit provided by Roche Diagnostics. Cholesterol esters are enzymatically hydrolyzed by cholesterol esterase (CE) to cholesterol and free fatty acids. Free cholesterol, including that originally present, is then oxidized by cholesterol oxidase (CO) to cholest-4-en-3-one and hydrogen peroxide. The hydrogen peroxide combines with hydroxy benzoic acid (HBA) and 4-aminoantipyrine (4AAA) in the presence of peroxidase (POD) to form a chromophore (quinoneimine dye), which may be quantitated at 500-505 nm. The intensity of red colour formed is directly proportional to the concentration of total cholesterol in the specimen and measured spectrophotometrically (Searcy, C. L. Diagnostic Biochemistry, 1969, McGraw Hill, New York; Ellefson, R. D.; Caraway, W. T. Fundamentals of clinical chemistry, 1976, Ed Tietz N W, 506-515.)
Triglycerides were estimated using the kit provided by Roche Diagnostics. Lipoprotein lipase hydrolyses triglycerides to yield glycerol and fatty acids. Glycerol kinase converts glycerol to glycerol-3-phosphate, which is oxidized by glycerol phosphate oxidase to dihydroxy acetone phosphate and hydrogen peroxide. In the presence of peroxidase, hydrogen peroxide oxidatively couples with 4-aminoantipyrine and 4-chloro phenol to produce red quinonimine dye. The intensity of red colour formed is directly proportional to the concentration of triglycerides in the specimen and is measured by photometrically (Wahlefeld, A. W.; Bergmeyer, H. U. Ed. Methods of enzymatic analysis, 2nd English edition, New York, N.Y., Academic press inc, 1831-1840.).
Serum (0.2 mL) and perchloric acid (1.0 mL) was digested at 180° C. for 1-1.5 h till the solution became colorless. The liberated inorganic phosphate (Pi) was measured by the method of Fiske and Subbarow (Fiske, C. H.; Subbarow, V. J. Biol. Chem. 1925, 66, 375.). 1 mL of 2.5% ammonium molybdate (prepared in 5 N sulphuric acid) and 0.5 mL reducing agent (4-amino naphthol sulphonic acid, 0.2%), sodium metabisulphite (2.4% w/v in distilled water) was added to the above tubes and mixed well. The reaction mixture was […] with 2.5 mL of triple distilled water and kept at 60° C. in water bath for 20 min. For standard, an appropriate amount of potassium dihydrogen phosphate dissolved in triple distilled water containing 2-10 μg phosphorous (Pi) was run simultaneously with the experiment tubes. The optical density of the blue colour was recorded at 620 nm against reagent blank. The values of Pi were converted into phospholipid by multiplying with 25 (a constant calibrated from Pi value of lecithin).

[2] = test system: db/db mice; assay: Antidyslipidemic activity in db/db mice; assay type: in vivo, mouse; details: for % Fall in lipid levels HDL: HDL-cholesterol; for % Fall in lipid levels HDL / % Fall in lipid levels Chol.: + marks a rise; for % Fall in lipid levels Chol.: cholesterol; for % Fall in lipid levels TG: triglycerides
Excerpt: The db/db mouse is a well-characterized model of type II diabetes. The background for the db/db mouse is the C57BL/Ks strain. The major deficiency of the C57BL/KsBom-db mouse (db/db) is lack of a functional leptin receptor. This leads to defective leptin signaling and a complete lack of feedback from leptin. […] The db/db mouse develops NIDDM from around week 10. The disease is stable until week 20, where destruction of pancreatic β-cells can be recognized clinically as decreasing levels of plasma insulin and very severe hyperglycemia. The male mice are more diabetic than female and will normally die earlier. The advantage of using male mice for experimental purposes is that the fluctuations in plasma parameters are less than in the females where the estrogen cycles affects the clinical diabetes mellitus. The optimal age of db/db mice used for experiments will be from week 12 to 18 when they have developed NIDDM with diabetic dyslipidemia but still have functional β-cells in the pancreas. C57BL/KsBom-db mice 12-18 weeks, 40-50 g bred in the animal house of CDRI, Lucknow. 10 male mice were used in the experiments. The mice were housed in groups of 5 individuals in a room controlled for temperature (23+2° C.) and 12/12 hours light/dark cycle (lights on at 6.00 am). Body weight was measured daily from day 1 to day 10. All animals had free access to fresh water and to normal chow except on the days of the postprandial protocol day 6 and during the overnight fast before the OGTT on day 10. Blood glucose was checked every morning up till day 5. On day 6 postprandial protocol was employed, in this method blood glucose was checked at −0.30 min and 0 h. Test compounds were given to the treatment group whereas control group received only gum acacia (1.0%); the blood glucose was again checked at 1, 2, 3, 4 and 6 h post test compound treatment. Finally on day 10 an oral glucose tolerance test (OGTT) was performed after an overnight fasting. Blood glucose was measured at −0.30 min and test drugs were fed, blood glucose was again measured at 0.0 min post treatment, at this juncture glucose solution was given at a dose of 3 gm/kg to all the groups including control group; the profile of blood glucose was checked at 30 min, 60 min, 90 min and 120 min post glucose administration. Quantitative glucose tolerance of each animal was calculated by Area Under Curve (AUC) method (Prism Software). Comparing the AUC of experimental and control groups determined the percentage antihyperglycemic activity. Statistical comparison was made by Dunnett's test.
Cholesterol and triglycerides were estimated using the same procedures as given above.
HDL-Cholesterol was estimated using the kit provided by the Roche Diagnostics. Cholestest N HDL is a liquid reagent that directly measures the HDL-cholesterol concentration in serum by a new method that is based on the selective solubilising effect of proprietary detergent to the different lipoproteins. In the assay system, only HDL is solubilised by a special detergent; other lipoproteins are not disrupted. After HDL is selectively disrupted, HDL cholesterol is measured enzymatically (Gordon, T.; Casstelli, W. P.; Hjortland, M. C.; Kannel, W. B.; Dawber, T. R. High density lipoproteins as a protective factor against coronary heart disease, Am. J. Med. 1977, 62, 707-714.).

[3] = phospholipid, read-out: % Fall in lipid levels (Triton model) PL
[4] = total cholesterol, read-out: % Fall in lipid levels (Triton model) TC
[5] = triglycerides, read-out: % Fall in lipid levels (Triton model) TG

Compound	inhibition in vivo at 100 mg/kg [1, 3]	inhibition in vivo at 100 mg/kg [1, 4]	inhibition in vivo at 100 mg/kg [1, 5]	% Fall in lipid levels HDL [2]	% Fall in lipid levels Chol. [2]	% Fall in lipid levels TG [2]	% Fall in lipid levels (Triton model) PL ([1]; phospholipid)	% Fall in lipid levels (Triton model) TC ([1]; total cholesterol)	% Fall in lipid levels (Triton model) TG ([1]; triglycerides)
CC(C)(C)NCC(O)COc1ccc2c(=O)cc(-c3cc(OCc4ccccc4)cc(OCc4ccccc4)c3)oc2c1 (stereo not drawn) [Compound 34, 7-(3-tert-Butylamino-2-hydroxy-propoxy)-3′,5′-dibenzyloxy-flavone]	18%	21%	9%	+19.3%	+26.9%	33.5%	–	–	–
CC(C)NCC(O)COc1ccc2c(=O)cc(-c3cc(O)cc(O)c3)oc2c1 (stereo not drawn) [Compound 49, 3′,5′-Dihydroxy-7-(2-hydroxy-3-iso-propylamino-propoxy)-flavone]	28%	32%	32%	+12.7%	17.2%	24.1%	–	–	–
COc1cc(-c2cc(=O)c3ccc(OCCCOc4ccc(C=C5SC(=O)NC5=O)cc4)cc3o2)cc(OC)c1OC [Compound 65, 7-{3-[4-(thiazolidin-2,4-dione-5-ylidinemethyl)-phenoxy]-propoxy}-3′,4′,5′-trimethoxy-flavone]	–	–	–	35.2%	1.06%	19.1%	6%	20%	3%
